Our source for the TGI values is PubChem BioAssay (NCI).

Structures are written as SMILES.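 96-well plates; 48 h exposure; 5 concentrations. Endpoints by linear interpolation between flanking doses. Not reached: highest tested concentration assigned. TGI: concentration producing complete growth inhibition.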

The first assay has as its system NCI-H23 lung. Briefly: DTP human tumour cell line panel, 48 h.
As usually defined, the TGI is the concentration giving total growth inhibition. Regarding `CN(C)/C=N/n1c2ccccc2c2ccccc21`, the TGI is greater than 100 µM.

The compound `O=[N+]([O-])c1cc2c(c3nonc13)OCCCCO2` showed a TGI of 25.2 µM. In other words, the double-digit micromolar range.

For the next assay, the system named is OVCAR-4 ovarian. Briefly: DTP human tumour cell line panel, 48 h.
In turn, `CCOC(=O)NC1CN2CCC1CC2` (centres undefined) showed a TGI greater than 100 µM.

`CN(C)/C=N/n1c2ccccc2c2ccccc21` yielded a TGI greater than 100 µM.

On to `O=[N+]([O-])c1cc2c(c3nonc13)OCCCCO2`, for which the TGI was found to be 27.4 µM. This counts as double-digit micromolar.

In the next assay the test system is A549 NSCLC. Kind of assay: DTP human tumour cell line panel, 48 h.
`CCOC(=O)NC1CN2CCC1CC2` (centres undefined) returned a TGI greater than 100 µM.

As to `CN(C)/C=N/n1c2ccccc2c2ccccc21`, the total growth inhibition concentration (TGI) was greater than 100 µM.

Turning to `O=[N+]([O-])c1cc2c(c3nonc13)OCCCCO2`, the TGI came to 33.5 µM.

For another assay, the system named is LOX IMVI melanoma. Kind of assay: DTP human tumour cell line panel, 48 h.
`CCOC(=O)NC1CN2CCC1CC2` (centres undefined) displayed a TGI greater than 100 µM.

In turn, `CC(=C\c1ccccc1)/C=C(\C#N)C(N)=O` gave a TGI greater than 10 µM.

`CN(C)/C=N/n1c2ccccc2c2ccccc21` had a TGI greater than 100 µM.

The compound `O=[N+]([O-])c1cc2c(c3nonc13)OCCCCO2` displayed a TGI of 12.6 µM. In other words, the double-digit micromolar range.

For the next assay, the system named is MOLT-4 leukemia. Kind of assay: DTP human tumour cell line panel, 48 h.
`CCOC(=O)NC1CN2CCC1CC2` (centres undefined) displayed a TGI greater than 100 µM.

Compound `CN(C)/C=N/n1c2ccccc2c2ccccc21` yielded a TGI greater than 100 µM.

In the case of `O=[N+]([O-])c1cc2c(c3nonc13)OCCCCO2`, the TGI amounted to 9.79 µM.

Another assay relates to HOP-92 NSCLC. Kind of assay: DTP human tumour cell line panel, 48 h.
Consider `CCOC(=O)NC1CN2CCC1CC2` (centres undefined), for which the total growth inhibition concentration (TGI) was greater than 100 µM.

`O=[N+]([O-])c1cc2c(c3nonc13)OCCCCO2` had a TGI of 26.3 µM.

In another assay the test system is DU-145 prostate. Kind of assay: DTP human tumour cell line panel, 48 h.
As to `CCOC(=O)NC1CN2CCC1CC2` (centres undefined), the TGI was greater than 100 µM.

The compound `CC(=C\c1ccccc1)/C=C(\C#N)C(N)=O` gave a TGI greater than 10 µM.

In the case of `CN(C)/C=N/n1c2ccccc2c2ccccc21`, the total growth inhibition concentration (TGI) is greater than 100 µM.

`O=[N+]([O-])c1cc2c(c3nonc13)OCCCCO2` returned a concentration for total growth inhibition (TGI) of 28.2 µM. This lies in the double-digit micromolar range.

In a further assay the test system is COLO 205 colon. Briefly: DTP human tumour cell line panel, 48 h.
Take `CCOC(=O)NC1CN2CCC1CC2` (centres undefined): the TGI is greater than 100 µM.

In turn, `CC(=C\c1ccccc1)/C=C(\C#N)C(N)=O` had a TGI greater than 10 µM.

Compound `CN(C)/C=N/n1c2ccccc2c2ccccc21` yielded a TGI greater than 100 µM.

For the compound `O=[N+]([O-])c1cc2c(c3nonc13)OCCCCO2`, the concentration for total growth inhibition (TGI) came to 17.9 µM.

In another assay the test system is UO-31 renal. Kind of assay: DTP human tumour cell line panel, 48 h.
The compound `CCOC(=O)NC1CN2CCC1CC2` (centres undefined) gave a TGI greater than 100 µM.

Compound `CC(=C\c1ccccc1)/C=C(\C#N)C(N)=O` came in with a TGI greater than 10 µM.

As for `CN(C)/C=N/n1c2ccccc2c2ccccc21`, the TGI was greater than 100 µM.

For `O=[N+]([O-])c1cc2c(c3nonc13)OCCCCO2`, the TGI was 19.7 µM.

A further assay has as its system MCF7 breast. Kind of assay: DTP human tumour cell line panel, 48 h.
`CC(=C\c1ccccc1)/C=C(\C#N)C(N)=O` gave a concentration for total growth inhibition (TGI) greater than 10 µM.

On to `CN(C)/C=N/n1c2ccccc2c2ccccc21`, for which the TGI is greater than 100 µM.

With `O=[N+]([O-])c1cc2c(c3nonc13)OCCCCO2`, the TGI was 24.2 µM.

The next assay relates to SK-MEL-5 melanoma. Kind of assay: DTP human tumour cell line panel, 48 h.
Take `CCOC(=O)NC1CN2CCC1CC2` (centres undefined): the TGI was greater than 100 µM.

`CC(=C\c1ccccc1)/C=C(\C#N)C(N)=O` yielded a TGI greater than 10 µM.

`CN(C)/C=N/n1c2ccccc2c2ccccc21`: the TGI is greater than 100 µM.

Compound `O=[N+]([O-])c1cc2c(c3nonc13)OCCCCO2` had a TGI of 21.2 µM.

The next assay has as its system KM12 colon. Kind of assay: DTP human tumour cell line panel, 48 h.
On to `CCOC(=O)NC1CN2CCC1CC2` (centres undefined), for which the TGI was greater than 100 µM.

With `CC(=C\c1ccccc1)/C=C(\C#N)C(N)=O`, the TGI was greater than 10 µM.

`CN(C)/C=N/n1c2ccccc2c2ccccc21` displayed a concentration for total growth inhibition (TGI) greater than 100 µM.

As for `O=[N+]([O-])c1cc2c(c3nonc13)OCCCCO2`, the total growth inhibition concentration (TGI) came to 20.7 µM.

In another assay the test system is HL-60(TB) leukemia. Briefly: DTP human tumour cell line panel, 48 h.
`CCOC(=O)NC1CN2CCC1CC2` (centres undefined) returned a TGI greater than 100 µM.

For `CN(C)/C=N/n1c2ccccc2c2ccccc21`, the TGI was greater than 100 µM.

With `O=[N+]([O-])c1cc2c(c3nonc13)OCCCCO2`, the TGI came out at 5.15 µM. That is a single-digit micromolar value.

Another assay deals with UACC-257 melanoma. Kind of assay: DTP human tumour cell line panel, 48 h.
`CCOC(=O)NC1CN2CCC1CC2` (centres undefined) came in with a TGI greater than 100 µM.

Compound `CN(C)/C=N/n1c2ccccc2c2ccccc21` registered a TGI greater than 100 µM.

Compound `O=[N+]([O-])c1cc2c(c3nonc13)OCCCCO2` registered a TGI of 28.9 µM.

A further assay deals with NCI/ADR-RES ovarian. Kind of assay: DTP human tumour cell line panel, 48 h.
Compound `CCOC(=O)NC1CN2CCC1CC2` (centres undefined) showed a TGI greater than 100 µM.

`CC(=C\c1ccccc1)/C=C(\C#N)C(N)=O` returned a TGI greater than 10 µM.

Consider `CN(C)/C=N/n1c2ccccc2c2ccccc21`, for which the TGI is greater than 100 µM.

With `O=[N+]([O-])c1cc2c(c3nonc13)OCCCCO2`, the TGI turned out to be 62.6 µM.

The test system of the next assay is HT29 colon. Briefly: DTP human tumour cell line panel, 48 h.
In the case of `CCOC(=O)NC1CN2CCC1CC2` (centres undefined), the TGI was greater than 100 µM.

The compound `CC(=C\c1ccccc1)/C=C(\C#N)C(N)=O` displayed a concentration for total growth inhibition (TGI) greater than 10 µM.

As for `CN(C)/C=N/n1c2ccccc2c2ccccc21`, the TGI is greater than 100 µM.

The compound `O=[N+]([O-])c1cc2c(c3nonc13)OCCCCO2` yielded a TGI of 21.1 µM.
